Assay results from patent US20220402867A1, “SULFO-SUBSTITUTED BIARYL COMPOUND OR SALT THEREOF, PREPARATION METHOD THEREFOR, AND USE THEREOF” (Shanghai Litedd Co., Ltd., priority 2019, published 2022).
Where two headings read alike, the source gives them in different places.

Columns and labels:
[1] = Pharmacokinetic (PK) assay in mice; format: in vivo; settings: CD-1 mice; for AUC(0-t) / Cmax / half-life / Vd / bioavailability: mouse, plasma; for Vd: read-out: Vss; for bioavailability: Po 5 mg/kg vs IV 1 mg/kg
Procedure, shortened: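 Plasma concentrations were quantified by UPLC-MS/MS in EDTA-K2 plasma collected from the saphenous vein over 0–24 h, and PK parameters were derived from them. Two groups of 3 CD-1 mice were used: 5 mg/kg oral gavage (DMSO/1% methylcellulose 1:99) and 1 mg/kg intravenous (5% DMSO/40% PEG400/55% (20% 3-CD)).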

GST-RORγ LBD (263-509) = target: T1, GST-RORγ LBD (263-509) (Homo sapiens, UniProt P51449); test: TR-FRET assay of agonistic activity on RORγ receptor; format: biochemical; settings: for EC50: TR-FRET, GST-RORγ LBD with Biotin-SRC1; for Emax: maximum activation rate, TOP of fitted curve
T1 construct: GST-RORγ LBD ((263-509) (produced at ChemPartner))
T1 sequence (P51449 263-509): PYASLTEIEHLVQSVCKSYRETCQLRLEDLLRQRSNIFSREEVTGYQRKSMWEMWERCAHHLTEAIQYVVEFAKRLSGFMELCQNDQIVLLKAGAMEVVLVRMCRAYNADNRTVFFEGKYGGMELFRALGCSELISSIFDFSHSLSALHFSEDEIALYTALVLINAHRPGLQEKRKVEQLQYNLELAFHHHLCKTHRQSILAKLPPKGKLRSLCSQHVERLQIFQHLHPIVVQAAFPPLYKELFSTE
Procedure, shortened: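 GST-RORγ LBD (75 nM solution) mixed 1:1 with Biotin-SRC1 (4 nM solution), then with Eu anti-GST and SA-APC; compounds in 10-point 3-fold series from 10 mM stock, duplicate.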

CL_obs ([1]; IV 1 mg/kg, values marked **) | AUC(0-t) ([1]; IV 1 mg/kg) | Cmax ([1]; IV 1 mg/kg) | half-life ([1]; IV 1 mg/kg) | Vd ([1]; IV 1 mg/kg, values marked *) | bioavailability [1] | AUC(0-t) ([1]; Po 5 mg/kg) | Cmax ([1]; Po 5 mg/kg) | half-life ([1]; Po 5 mg/kg) | EC50 (GST-RORγ LBD (263-509)) | Emax (GST-RORγ LBD (263-509)) | CL_obs ([1]; IV 1 mg/kg) | Vd ([1]; IV 1 mg/kg) | SMILES
4.31** mL/min/kg | 3810 ng·h/mL | 787 ng/mL | 4.14 h | 1.38 L/kg | 89.1% | 17100 ng·h/mL | 3040 ng/mL | 3.51 h | 6.2 nM | 194% |  |  | COCC(C(=O)Nc1ccc(-c2ccc(S(=O)(=O)C3CC3)cc2)c(C(F)(F)F)c1)c1ccc(S(C)(=O)=O)cc1 (single isomer, unassigned) [Example 43, (S)—N-(4′-(cyclopropylsulfonyl)-2-(trifluoromethyl)-[1,1′-biphenyl]-4-yl)-3-methoxy-2-(4-(methylsulfonyl)phenyl)propionamide or (R)—N-(4′-(cyclopropylsulfonyl)-2-(trifluoromethyl)-[1,1′-biphenyl]-4-yl)-3-methoxy-2-(4-(methylsulfonyl)phenyl)propanamide]
 | 2250 ng·h/mL | 737 ng/mL | 1.76 h |  | 112% | 12600 ng·h/mL | 3030 ng/mL | 2.46 h | 9.1 nM | 210% | 426.2 mL/h/kg | 1.09 L/kg | CCS(=O)(=O)c1ccc(CC(=O)Nc2cc(Cl)c(-c3ccc(S(C)(=O)=O)cc3)c(Cl)c2)cc1 [Example 2, N-(2,6-dichloro-4′-(methylsulfonyl)-[1,1′-biphenyl]-4-yl)-2-(4-(ethylsulfonyl)phenyl)acetamide]
 |  |  |  |  |  |  |  |  | 9.6 nM | 220% |  |  | CCS(=O)(=O)c1ccc(-c2c(Cl)cc(NC(=O)Cc3ccc(S(C)(=O)=O)cc3)cc2Cl)cc1 [Example 4, N-(2,6-Dichloro-4′-(ethylsulfonyl)-[1,1′-biphenyl]-4-yl)-2-(4-(methylsulfonyl)phenyl)acetamide]
 | 730 ng·h/mL | 1360 ng/mL | 0.45 h |  | 38.8% | 1420 ng·h/mL | 1770 ng/mL | 0.5 h | 8.5 nM | 222% | 1367 mL/h/kg | 0.893 L/kg | CCS(=O)(=O)c1ccc(-c2c(Cl)cc(NC(=O)Cc3ccc(S(=O)(=O)CC)cn3)cc2Cl)cc1 [Example 5, N-(2,6-Dichloro-4′-(ethylsulfonyl)-[1,1′-biphenyl]-4-yl)-2-(5-(ethylsulfonyl)pyridin-2-yl)acetamide]
 |  |  |  |  |  |  |  |  | 10.1 nM | 170% |  |  | CCS(=O)(=O)c1ccc(CC(=O)Nc2cc(Cl)c(-c3ccc(S(C)(=O)=O)cc3)c(Cl)c2)nc1 [Example 8, N-(2,6-Dichloro-4′-(methylsulfonyl)-[1,1′-biphenyl]-4-yl)-2-(5-(ethylsulfonyl)pyridin-2-yl)acetamide]
 |  |  |  |  |  |  |  |  | 22.2 nM | 160% |  |  | CCS(=O)(=O)c1ccc(-c2c(Cl)cc(NC(=O)Cc3ccc(S(C)(=O)=O)cn3)cc2Cl)cc1 [Example 9, N-(2,6-Dichloro-4′-(ethylsulfonyl)-[1,1′-biphenyl]-4-yl)-2-(5-(methylsulfonyl)pyridin-2-yl)acetamide]
 | 7250 ng·h/mL | 709 ng/mL | 6.33 h |  | 86.1% | 31200 ng·h/mL | 3810 ng/mL | 4.52 h | 6.8 nM | 167% | 128.6 mL/h/kg | 1.04 L/kg | CS(=O)(=O)c1ccc(CC(=O)Nc2cc(Cl)c(-c3ccc(S(=O)(=O)C4CC4)cc3)c(Cl)c2)cc1 [Example 11, N-(2,6-Dichloro-4′-(cyclopropylsulfonyl)-[1,1′-biphenyl]-4-yl)-2-(4-(methylsulfonyl)phenyl)acetamide]
 | 786 ng·h/mL | 1320 ng/mL | 0.63 h |  | 24.2% | 952 ng·h/mL | 1220 ng/mL | 0.54 h | 12.1 nM | 171% | 1264.7 mL/h/kg | 0.713 L/kg | CCS(=O)(=O)c1ccc(-c2c(Cl)cc(NC(=O)C(COC)c3ccc(S(=O)(=O)CC)cc3)cc2Cl)cc1 (centres unmarked) [Example 13, N-(2,6-Dichloro-4′-(ethylsulfonyl)-[1,1′-biphenyl]-4-yl)-2-(4-(ethylsulfonyl)phenyl)-3-methoxypropionamide]
4.51** mL/min/kg | 3660 ng·h/mL | 1170 ng/mL | 3.88 h | 1.1 L/kg | 56.3% | 10300 ng·h/mL | 1420 ng/mL | 3.3 h | 16.6 nM | 187% |  |  | CCS(=O)(=O)c1ccc(C(COC)C(=O)Nc2cc(Cl)c(-c3ccc(S(=O)(=O)C4CC4)cc3)c(Cl)c2)cc1 (centres unmarked) [Example 16, N-(2,6-Dichloro-4′-(cyclopropylsulfonyl)-[1,1′-biphenyl]-4-yl)-2-(4-(ethylsulfonyl)phenyl)-3-methoxypropionamide]
1.98** mL/min/kg | 8280 ng·h/mL | 1160 ng/mL | 4.85 h | 0.75 L/kg | 57.3% | 21600 ng·h/mL | 1660 ng/mL | 6.95 h | 19.5 nM | 192% |  |  | COCC(C(=O)Nc1cc(Cl)c(-c2ccc(S(=O)(=O)C3CC3)cc2)c(Cl)c1)c1ccc(S(C)(=O)=O)cc1 (centres unmarked) [Example 20, N-(2,6-Dichloro-4′-(cyclopropylsulfonyl)-[1,1′-biphenyl]-4-yl)-3-methoxy-2-(4-(methylsulfonyl)phenyl)propionamide]
